Experimental data as given in publication PMC5681660, “Reduced hepatitis B and D viral entry using clinically applied drugs as novel inhibitors of the bile acid transporter NTCP” (Scientific Reports, 2017).
Counter-ions that a name gives are not always drawn. Like-named read-outs stand apart in the source and are kept apart here.

How the values were obtained:
human NTCP [1] = target: T1, human NTCP (Homo sapiens, UniProt Q14973); assay: Screening fluorescent competitive Myrcludex B-FITC binding assay (96-well, 10 µM drug)
T1 sequence (Q14973 1-349): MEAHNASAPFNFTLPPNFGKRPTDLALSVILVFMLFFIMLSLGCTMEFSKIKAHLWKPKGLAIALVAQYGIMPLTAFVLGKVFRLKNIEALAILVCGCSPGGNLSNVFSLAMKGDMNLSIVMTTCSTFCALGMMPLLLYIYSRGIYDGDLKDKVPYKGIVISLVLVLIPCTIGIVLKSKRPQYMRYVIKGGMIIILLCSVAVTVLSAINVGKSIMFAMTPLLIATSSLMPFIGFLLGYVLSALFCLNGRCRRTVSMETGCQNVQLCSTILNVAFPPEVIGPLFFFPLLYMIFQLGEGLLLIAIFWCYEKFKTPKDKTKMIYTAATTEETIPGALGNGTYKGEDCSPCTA

human NTCP [2] = target: T1, human NTCP; assay: Screening taurocholate uptake assay (96-well, [14C]taurocholate, 10 µM drug)
[3] = screen, 10 µM drug, Myrcludex B-FITC binding
[4] = combined ranking from functional and binding screening assays
[5] = screen, 10 µM drug, taurocholate uptake
[6] = Prestwick library screen, Myrcludex B-FITC binding, 10 µM drug
[7] = Prestwick library screen, taurocholate uptake, 10 µM drug
[8] = ranking score beside the functional and binding assay B-scores of the screen
[9] = Prestwick library screen, 10 µM drug, B-score of Myrcludex B-FITC binding
[10] = Prestwick library screen, 10 µM drug, B-score of taurocholate uptake
[11] = combined ranking from functional and binding assay B-scores

| Compound | B-score binding assay (human NTCP [1]; [6]) | B-score functional assay (human NTCP [2]; [7]) | Ranking score (human NTCP [2]; [8]) | B-score binding assay (human NTCP [1]; [9]) | B-score functional assay (human NTCP [2]; [10]) | Ranking score (human NTCP [2]; [11]) | further results |
| --- | --- | --- | --- | --- | --- | --- | --- |
| CC(C)OC(=O)CCC/C=C\C[C@@H]1[C@@H](CC[C@@H](O)CCc2ccccc2)[C@H](O)C[C@@H]1O [Latanoprost] | – | – | – | – | – | – | B-score binding assay (human NTCP [1]; [3]): 0.817; Ranking score (human NTCP [2]; [4]): 347.885; B-score functional assay (human NTCP [2]; [5]): -2.131 |
| CC(=O)Nc1nnc(S(N)(=O)=O)s1 [Acetazolamide] | -0.137 | 0.532 | 696.956 | – | – | – | – |
| Bacitracin | – | – | – | 0.785 | 1.013 | 1026.66 | – |
| C[C@]12C[C@H](O)[C@H]3[C@@H](CCC4=CC(=O)CC[C@@]43C)[C@@H]1CC[C@@H]2C(=O)CO [Corticosterone] | – | – | – | – | – | – | B-score binding assay (human NTCP [1]; [3]): -1.468; Ranking score (human NTCP [2]; [4]): 434.757; B-score functional assay (human NTCP [2]; [5]): 1.754 |
| CCN(CC)C(C)CN1c2ccccc2Sc2ccccc21 (stereo not drawn) [Ethopropazine hydrochloride] | -0.236 | 0.753 | 687.443 | – | – | – | – |
| CCOc1ccc(NC(C)=O)cc1 [Phenacetin] | – | – | – | 0.917 | 0.074 | 860.113 | – |
| Cn1c(=O)c2c(ncn2CC(O)CO)n(C)c1=O (stereo not drawn) [Diprophylline] | 1.219 | -0.019 | 816.025 | – | – | – | – |
| CC(C)N(CCC(C(N)=O)(c1ccccc1)c1ccccn1)C(C)C (stereo not drawn) [Disopyramide] | – | – | – | 2.245 | 0.051 | 925.407 | – |
| CCCC(C)C1(CC)C(=O)NC(=O)NC1=O (stereo not drawn) [Pentobarbital] | – | – | – | – | – | – | B-score binding assay (human NTCP [1]): 1.244; B-score functional assay (human NTCP [2]): -0.299; Ranking score (human NTCP [2]): 697.378 |
| COc1ccc(C(=O)c2ccccc2)c(O)c1 [Oxybenzone] | -0.416 | 2.742 | 706.929 | – | – | – | – |
| O=C1CN2Cc3c(ccc(Cl)c3Cl)N=C2N1 [Anagrelide] | – | – | – | 0.622 | 0.197 | 871.654 | – |
| CN[C@@H]1[C@@H](O[C@H]2O[C@H](CO)[C@@H](N)[C@H](O)[C@H]2O)OC2C[C@@H](N)[C@@H](O[C@H]3[C@H](O)[C@@H](O)[C@H](N)C[C@@H]3N)OC2[C@@H]1O (stereo partly drawn) [Apramycin] | – | – | – | – | – | – | B-score binding assay (human NTCP [1]; [3]): -0.447; Ranking score (human NTCP [2]; [4]): 397.98; B-score functional assay (human NTCP [2]; [5]): -0.431 |
| CC[C@H](C)C(=O)O[C@H]1CCC=C2C=C[C@H](C)[C@H](CC[C@@H]3C[C@@H](O)CC(=O)O3)[C@H]21 [Mevastatin] | – | – | – | – | – | – | B-score binding assay (human NTCP [1]; [3]): 1.164; Ranking score (human NTCP [2]; [4]): 355.331; B-score functional assay (human NTCP [2]; [5]): -2.175 |
| CCN(CC)Cc1cc(Nc2ccnc3cc(Cl)ccc23)ccc1O.Cl.Cl.O.O [Amodiaquin dihydrochloride dihydrate] | 1.445 | -0.477 | 658.143 | – | – | – | – |
| CCCC(C)(COC(N)=O)COC(=O)NC(C)C (stereo not drawn) [Carisoprodol] | 3.83 | -0.248 | 768.775 | – | – | – | – |
| Cc1ccccc1OCC(O)CO (stereo not drawn) [Mephenesin] | 1.192 | -0.317 | 689.632 | – | – | – | – |
| CC1(C)O[C@@H]2C[C@H]3[C@@H]4CCC5=CC(=O)C=C[C@]5(C)[C@H]4[C@@H](O)C[C@]3(C)[C@]2(C(=O)CO)O1 [Desonide] | 0.993 | -0.358 | 665.567 | – | – | – | – |
| CCOC(=O)[C@@](C)(N)Cc1ccc(O)c(O)c1 [Methyldopate hydrochloride] | – | – | – | 2.397 | 0.673 | 1088.5 | – |

| Compound | B-score binding assay (human NTCP [1]; [6]) | B-score functional assay (human NTCP [2]; [7]) | Ranking score (human NTCP [2]; [8]) | B-score binding assay (human NTCP [1]; [9]) | B-score functional assay (human NTCP [2]; [10]) | Ranking score (human NTCP [2]; [11]) | further results |
| --- | --- | --- | --- | --- | --- | --- | --- |
| CN(C)[C@@H]1C(O)=C(C(N)=O)C(=O)[C@@]2(O)C(O)=C3C(=O)c4c(O)ccc(Cl)c4[C@@](C)(O)[C@H]3C[C@@H]12 [Chlortetracycline hydrochloride] | 0.571 | -0.045 | 738.786 | – | – | – | – |
| C[C@H]1C[C@H]2[C@@H]3CCC4=CC(=O)C=C[C@]4(C)[C@@]3(F)[C@@H](O)C[C@]2(C)[C@@]1(O)C(=O)CO [Betamethasone] | -0.13 | 0.975 | 747.052 | – | – | – | – |
| COc1ccc2c(c1)N(C[C@H](C)CN(C)C)c1ccccc1S2.O=C(O)/C=C\C(=O)O [Methotrimeprazine maleat salt] | -0.27 | 1.773 | 734.211 | – | – | – | – |
| CNCC[C@@H](Oc1cccc2ccccc12)c1cccs1.Cl [(R)-Duloxetine hydrochloride] | – | – | – | – | – | – | B-score binding assay (human NTCP [1]): -0.619; B-score functional assay (human NTCP [2]): 1.079; Ranking score (human NTCP [2]): 610.37 |
| CCCCNc1ccc(C(=O)OCCOCCOCCOCCOCCOCCOCCOCCOCCOC)cc1 [Benzonatate] | – | – | – | 2.274 | 0.062 | 933.857 | – |
| Cc1onc(-c2c(F)cccc2Cl)c1C(=O)N[C@@H]1C(=O)N2[C@@H]1SC(C)(C)[C@@H]2C(=O)O [Flucloxacillin sodium] | – | – | – | 1.029 | 0.761 | 1024.7 | – |
| CN(C)CCC=C1c2ccccc2CCc2ccccc21.Cl [Amitryptiline hydrochloride] | 2.835 | -0.217 | 769.935 | – | – | – | – |
| Nc1nc(O)c2[nH]nnc2n1 [Azaguanine-8] | – | – | – | 0.825 | 3.711 | 1120.13 | – |
| N=C(N)N1CCc2ccccc2C1 [Debrisoquin sulfate] | – | – | – | 0.059 | 2.382 | 932.772 | – |
| CN1CCCC(n2nc(Cc3ccc(Cl)cc3)c3ccccc3c2=O)CC1 (stereo not drawn) [Azelastine HCl] | – | – | – | 0.157 | 1.435 | 940.553 | – |
| O=C(O)CCC(=O)c1ccc(-c2ccccc2)cc1 [Fenbufen] | – | – | – | – | – | – | B-score binding assay (human NTCP [1]; [3]): -0.209; Ranking score (human NTCP [2]; [4]): 326.986; B-score functional assay (human NTCP [2]; [5]): -1.216 |
| CC(=O)O[C@]1(C(C)=O)CC[C@H]2[C@@H]3C=C(Cl)C4=CC(=O)[C@@H]5C[C@@H]5[C@]4(C)[C@H]3CC[C@@]21C [Cyproterone acetate] | 0.796 | -0.245 | 678.19 | – | – | – | – |
| CC(CNC1CCCCC1)OC(=O)c1ccccc1 (stereo not drawn) [Hexylcaine hydrochloride] | – | – | – | – | – | – | B-score binding assay (human NTCP [1]; [3]): -1.021; Ranking score (human NTCP [2]; [4]): 435.325; B-score functional assay (human NTCP [2]; [5]): 0.196 |
| Cn1c(=O)c2c(ncn2CCO)n(C)c1=O [Etofylline] | 0.258 | 0.319 | 831.39 | – | – | – | – |
| Nc1ccc(S(=O)(=O)Nc2ncccn2)cc1 [Sulfadiazine] | – | – | – | 1.389 | 0.878 | 1074.81 | – |
| CC(=O)N1CCN(c2ccc(OCC3COC(Cn4ccnc4)(c4ccc(Cl)cc4Cl)O3)cc2)CC1 (stereo not drawn) [Ketoconazole] | – | – | – | – | – | – | B-score binding assay (human NTCP [1]; [3]): -1.382; Ranking score (human NTCP [2]; [4]): 349.5; B-score functional assay (human NTCP [2]; [5]): 0.044 |
| CCOc1ccccc1OC(c1ccccc1)C1CNCCO1.CS(=O)(=O)O (stereo not drawn) [Reboxetine mesylate] | -0.028 | 1.175 | 814.737 | – | – | – | – |
